Organism: Rattus norvegicus
Experiment: DrugMatrix - Regimen: Daily Repeat
Type: toxicity, organism-based, Sprague-Dawley
Set-up: regimen Daily Repeat, gender Male, age 6-8 weeks
Details: in vivo, po, route oral GAVAGE, […]; for ABSOLUTE BASOPHIL / ABSOLUTE EOSINOPHIL / ABSOLUTE LYMPHOCYTE / ABSOLUTE MONOCYTE / ABSOLUTE SEGMENTED NEUTROPHIL / BASOPHIL / EOSINOPHIL / ERYTHROCYTE COUNT / HEMATOCRIT / HEMOGLOBIN / LEUKOCYTE COUNT / LYMPHOCYTE / MEAN CORPUSCULAR HEMOGLOBIN / MEAN CORPUSCULAR HEMOGLOBIN CONCENTRATION / MEAN CORPUSCULAR VOLUME / MONOCYTE / NEUTROPHIL / NUCLEATED RED BLOOD CELLS / PLATELET COUNT: tissue Blood; for ALANINE AMINOTRANSFERASE / ALBUMIN / ALKALINE PHOSPHATASE / ASPARTATE AMINOTRANSFERASE / BLOOD UREA NITROGEN / CARBON DIOXIDE / CHLORIDE / CHOLESTEROL / CREATINE PHOSPHOKINASE / CREATININE / GLUCOSE / LACTATE DEHYDROGENASE / LIPASE / PHOSPHORUS / POTASSIUM / SODIUM / TOTAL BILIRUBIN / URIC ACID / TOTAL PROTEIN: tissue Plasma
[1] = 0.3 mg/kg, 120 h, dose level Low, time 5 day
[2] = 150 mg/kg, 72 h, dose level High, time 3 day
[3] = 150 mg/kg, 120 h, dose level High, time 5 day

## C[C@]12CC[C@@H]3c4ccc(O)cc4CC[C@H]3[C@@H]1CC[C@@H]2O [ESTRADIOL]
[1]
  ABSOLUTE BASOPHIL: 0 CELLS/uL
  ABSOLUTE EOSINOPHIL: 0 CELLS/uL
  ABSOLUTE LYMPHOCYTE: 8421.33 CELLS/uL
  ABSOLUTE MONOCYTE: 178.67 CELLS/uL
  ABSOLUTE SEGMENTED NEUTROPHIL: 333.33 CELLS/uL
  BASOPHIL: 0%
  EOSINOPHIL: 0%
  ERYTHROCYTE COUNT: 5.67 x10E6/uL
  HEMATOCRIT: 36.43%
  HEMOGLOBIN: 14.13 G/DL
  LEUKOCYTE COUNT: 8.93 x10E3/uL
  LYMPHOCYTE: 94.33%
  MEAN CORPUSCULAR HEMOGLOBIN: 24.93 pg
  MEAN CORPUSCULAR HEMOGLOBIN CONCENTRATION: 38.77 G/DL
  MEAN CORPUSCULAR VOLUME: 64.2 fL
  MONOCYTE: 2%
  NEUTROPHIL: 3.67%
  NUCLEATED RED BLOOD CELLS: 0 /100WBC
  PLATELET COUNT: 1136.67 x10E3/uL
  ALANINE AMINOTRANSFERASE: 62 u/L
  ALBUMIN: 4.23 G/DL
  ALKALINE PHOSPHATASE: 381.67 u/L
  ASPARTATE AMINOTRANSFERASE: 80.33 u/L
  BLOOD UREA NITROGEN: 11 mg/dL
  CARBON DIOXIDE: 31.67 mmol/L
  CHLORIDE: 97 MEQ/L
  CHOLESTEROL: 52.67 mg/dL
  CREATINE PHOSPHOKINASE: 324.67 u/L
  CREATININE: 0.15 mg/dL
  GLUCOSE: 162.67 mg/dL
  LACTATE DEHYDROGENASE: 166.67 u/L
  LIPASE: 10.33 u/L
  PHOSPHORUS: 9.63 mg/dL
  POTASSIUM: 5.76 MEQ/L
  SODIUM: 143 MEQ/L
  TOTAL BILIRUBIN: 0.2 mg/dL
  URIC ACID: 0.43 mg/dL
[2]
  ABSOLUTE BASOPHIL: 0 CELLS/uL
  ABSOLUTE EOSINOPHIL: 0 CELLS/uL
  ABSOLUTE LYMPHOCYTE: 6738.33 CELLS/uL
  ABSOLUTE MONOCYTE: 100.67 CELLS/uL
  ABSOLUTE SEGMENTED NEUTROPHIL: 527.67 CELLS/uL
  BASOPHIL: 0%
  EOSINOPHIL: 0%
  ERYTHROCYTE COUNT: 5.96 x10E6/uL
  HEMATOCRIT: 36.23%
  HEMOGLOBIN: 13.83 G/DL
  LEUKOCYTE COUNT: 7.37 x10E3/uL
  LYMPHOCYTE: 91.67%
  MEAN CORPUSCULAR HEMOGLOBIN: 23.37 pg
  MEAN CORPUSCULAR HEMOGLOBIN CONCENTRATION: 38.27 G/DL
  MEAN CORPUSCULAR VOLUME: 61 fL
  MONOCYTE: 1.33%
  NEUTROPHIL: 7%
  NUCLEATED RED BLOOD CELLS: 0 /100WBC
  PLATELET COUNT: 934 x10E3/uL
  ALANINE AMINOTRANSFERASE: 64.33 u/L
  ALBUMIN: 3.8 G/DL
  ALKALINE PHOSPHATASE: 760.67 u/L
  ASPARTATE AMINOTRANSFERASE: 90 u/L
  BLOOD UREA NITROGEN: 10 mg/dL
  CARBON DIOXIDE: 33 mmol/L
  CHLORIDE: 100 MEQ/L
  CHOLESTEROL: 22.67 mg/dL
  CREATINE PHOSPHOKINASE: 373.33 u/L
  CREATININE: 0.22 mg/dL
  GLUCOSE: 140.33 mg/dL
  LACTATE DEHYDROGENASE: 223.67 u/L
  LIPASE: 12.33 u/L
  PHOSPHORUS: 8.83 mg/dL
  SODIUM: 145.57 MEQ/L
  TOTAL BILIRUBIN: 0.23 mg/dL
  TOTAL PROTEIN: 5.87 G/DL
  URIC ACID: 0.3 mg/dL
[3]
  ABSOLUTE BASOPHIL: 0 CELLS/uL
  ABSOLUTE EOSINOPHIL: 0 CELLS/uL
  ABSOLUTE LYMPHOCYTE: 9738.33 CELLS/uL
  ABSOLUTE MONOCYTE: 202.33 CELLS/uL
  ABSOLUTE SEGMENTED NEUTROPHIL: 759.33 CELLS/uL
  BASOPHIL: 0%
  EOSINOPHIL: 0%
  ERYTHROCYTE COUNT: 6.23 x10E6/uL
  HEMATOCRIT: 39.2%
  HEMOGLOBIN: 14.6 G/DL
  LEUKOCYTE COUNT: 10.7 x10E3/uL
  LYMPHOCYTE: 91%
  MEAN CORPUSCULAR HEMOGLOBIN: 23.43 pg
  MEAN CORPUSCULAR HEMOGLOBIN CONCENTRATION: 37.27 G/DL
  MEAN CORPUSCULAR VOLUME: 62.93 fL
  MONOCYTE: 2%
  NEUTROPHIL: 7%
  NUCLEATED RED BLOOD CELLS: 0 /100WBC
  PLATELET COUNT: 1292.33 x10E3/uL
  ALANINE AMINOTRANSFERASE: 55.33 u/L
  ALBUMIN: 3.87 G/DL
  ALKALINE PHOSPHATASE: 654.67 u/L
  ASPARTATE AMINOTRANSFERASE: 67 u/L
  BLOOD UREA NITROGEN: 7.67 mg/dL
  CARBON DIOXIDE: 29.33 mmol/L
  CHLORIDE: 99.67 MEQ/L
  CHOLESTEROL: 14 mg/dL
  CREATINE PHOSPHOKINASE: 271.33 u/L
  CREATININE: 0.13 mg/dL
  GLUCOSE: 125.67 mg/dL
  LACTATE DEHYDROGENASE: 192.67 u/L
  LIPASE: 7.67 u/L
  POTASSIUM: 5.37 MEQ/L
  SODIUM: 145.23 MEQ/L
  TOTAL BILIRUBIN: 0.2 mg/dL
  TOTAL PROTEIN: 6.67 G/DL
  URIC ACID: 0.3 mg/dL
